Results as given in the NIST ThermoML archive (doi:10.1021/je100704j).
Numbers after ± are expanded uncertainties.

Experiments:
[1] = refractive index (Na D-line) (dimensionless); details: 293.15 K; 101.33 kPa; Liquid; Standard Abbe refractometry
[2] = 298.15 K; 101.33 kPa; Liquid; Vibrating tube method

CC(=O)CC(C)=O [2,4-pentanedione]
refractive index [1]: 1.4489 ± 0.0008
mass density [2]: 971.7 ± 0.2 kg/m3

C1CCCCC1 [cyclohexane]
refractive index [1]: 1.4259 ± 0.0008
mass density [2]: 773.4 ± 0.2 kg/m3

CCOC(C)=O [ethyl acetate]
refractive index [1]: 1.3701 ± 0.0008
mass density [2]: 894.6 ± 0.2 kg/m3

O [water]
refractive index [1]: 1.3327 ± 0.0008
mass density [2]: 996.8 ± 0.2 kg/m3
